{"source": "patent US20160279135A1", "about": "“THERAPIES FOR TREATING MYELOPROLIFERATIVE DISORDERS” (Gilead Sciences, Inc., priority 2013, published 2016)", "key": {"pS6 Ser235/236": {"system": "pS6 Ser235/236", "experiment": "Western blot of S6 phosphorylation in BaF3/MPL cells", "format": "cell-based", "details": "2 h, then TPO 50 ng/mL 10 min, vs vehicle", "description": "(§1) In addition, Compound B was examined for the effects on the PI3K signaling pathway by determining the levels of AKT and S6 phosphorylation with or without TPO activation. Two cell lines, BaF3/MPL and UT-7/TPO sensitive or responsive to TPO activation were used. The cells were starved (i.e. growing on medium having less FBS) in […] FBS/RPMI for two hours before treated with 0.1, 1.0, or 2.0 μM of Compound B or vehicle (0.1% DMSO in RPMI) for 2 hours at 37° C. To examine the TPO-activated phosphorylation, the cells were then treated or activated with 50 ng/mL of human recombinant TPO (Peprotech) for 10 minutes at 37° C. The TPO activation or treatment may reflect the conditions in diseased cells as the PI3K pathway is activated by TPO in myelofibrosis. After treating with compound and/or TPO, the cells were collected, lysed by lysis buffer (Cell Signaling), separated by SDS-PAGE, and analyzed by the Western blot using antibodies specific to p-AKT Ser473 or pS6 Ser235/236 (Cell Signaling). The phosphorylation levels in treated cells were calculated and compared to those of untreated cells (i.e. vehicle as negative control)."}, "p-AKT Ser473": {"system": "p-AKT Ser473", "experiment": "Western blot of AKT phosphorylation in UT-7/TPO cells", "format": "cell-based", "details": "2 h, then TPO 50 ng/mL 10 min, vs vehicle", "description": "as §1"}, "pS6RP Ser235/236": {"system": "pS6RP Ser235/236", "experiment": "flow cytometry of S6RP phosphorylation in CD34+ progenitor cells from MF patients", "format": "cell-based, human", "details": "for normalized percentage of TPO-activated S6RP phosphorylation (p-S6RP): 2.0 μM, then TPO, one value per patient, TPO-treated vehicle = 100", "description": "In this example, PBMCs were isolated from whole blood of myelofibrosis (MF) patients who had not received treatments (i.e. naïve patients) or received ruxolitinib (i.e. rux-treated patients). The cells were treated with 0.02, 0.2, or 2.0 μM of Compound B or vehicle (0.1% DMSO in 0.1% FBS/RPMI) for 2 hours at 37° C. The cells were then fixed, permeabilized, and stained for FACS analysis. Antibodies specific to p-AKT Ser473 and pS6RP Ser235/236 were used to detect AKT phosphorylation (p-AKT) and S6RP phosphorylation (p-S6RP) in CD34^+/CD3^−/CD14^−/CD19/CD66^− (BD Biosciences) gated cells using flow cytometry. The percentage of basal (i.e. untreated with TPO) AKT and S6RP phosphorylation were normalized to vehicle control (i.e. “no TPO” values shown in Table 2). A two-tailed paired t-test (GraphPad Prism) was used to calculate p-values. Values of p<0.05 were considered significant.\nAlso, PBMC cells were treated with Compound B and with TPO as described above. The percentage of TPO-activated AKT and S6RP phosphorylation were normalized to those of TPO-treated vehicle. […] Also, the inhibition to PI3K signaling was dose-dependent to Compound B.\nSimilar studies were conducted with PI3K inhibitors Compounds C and D. PBMC from MF patients had received ruxolitinib (rux) and MF patient had received Compound A. The cells were treated with Compounds C or D at 0, 20.0, 200.0, 2000.0 nM for 2 hours at 37° C. Cells were treated with TPO for 10 minutes. The percentage of basal p-AKT and p-S6RP levels were normalized to vehicle control and those of TPO-treated were normalized to TPO-treated vehicle control. The PI3K inhibitors Compounds C and D had the chemical names of (S)-2-(1-((9H-purin-6-yl)amino)ethyl)-6-fluoro-3-phenylquinazolin-4(3H)-one and (S)-2,4-diamino-6-(((5-chloro-8-fluoro-4-oxo-3-(pyridine-3-yl)-3,4-dihydroquinazolin-2-yl)(cyclopropyl)methyl)amino)pyrimidine-5-carbonitrile, respectively."}, "Pfeiffer cells": {"system": "Pfeiffer cells", "experiment": "CellTiter-Glo cell viability of Pfeiffer cells with IL6", "format": "cell-based", "details": "Homo sapiens, 96 h, n=4, read-out: percentage of viable Pfeiffer cells, AVG; for viability at […]: 74 nM Compound B; for viability at 0.2 µM: 200 nM Compound B; for viability at 0.421 µM: 421 nM Compound B", "description": "Next, Pfeiffer cells were treated with IL6 (0 or 3 ng/mL), Compound A (0, 136, 272, or 695 nM), and/or Compound B (0, 74, 200, or 421 nM) (n=4 per group) for 96 hours.\nCellular viability was determined using the CellTiter-Glo Luminescent Cell Viability Assay (Promega). The percentage of viable cells was normalized to the groups that were not treated with Compound A or Compound B, and standard deviation was calculated."}}, "note": "Where “and” joins values, the source holds several entries; their conditions need not be identical. Equal values may be shown once. Read-outs that look alike come from different tables or passages of the source."}
{"smiles": "CC[C@H](Nc1ncnc2[nH]cnc12)c1nc2cccc(F)c2c(=O)n1-c1ccccc1", "note": "[Compound B, (S)-2-(1-((9H-purin-6-yl)amino)propyl)-5-fluoro-3-phenylquinazolin-4(3H)-one]", "values": [{"measurement": "reduced p-S6 levels", "setting": "pS6 Ser235/236; 0.1 μM", "value": 24, "unit": "%"}, {"measurement": "reduced p-S6 levels", "setting": "pS6 Ser235/236; 1.0 μM", "value": 27, "unit": "%"}, {"measurement": "reduced p-S6 levels", "setting": "pS6 Ser235/236; 2.0 μM", "value": 41, "unit": "%"}, {"measurement": "reduced p-AKT levels", "setting": "p-AKT Ser473; 0.1 μM", "value": 11, "unit": "%"}, {"measurement": "reduced p-AKT levels", "setting": "p-AKT Ser473; 1.0 μM", "value": 44, "unit": "%"}, {"measurement": "reduced p-AKT levels", "setting": "p-AKT Ser473; 2.0 μM", "value": 55, "unit": "%"}, {"measurement": "normalized percentage of TPO-activated S6RP phosphorylation (p-S6RP)", "setting": "pS6RP Ser235/236; progenitor cells of naïve MF patients", "value": "23% and 45%"}, {"measurement": "normalized percentage of TPO-activated S6RP phosphorylation (p-S6RP)", "setting": "pS6RP Ser235/236; progenitor cells of rux-treated MF patients", "value": "21% and 45% and 36% and 20% and 31%"}, {"measurement": "basal p-S6RP levels", "setting": "pS6RP Ser235/236; 0.02-2.0 μM, 2 h, no TPO, MF progenitor cells vs untreated, data not shown", "value": "reduced levels"}, {"measurement": "viability at […]", "setting": "Pfeiffer cells; IL6 0 ng/mL", "value": 72, "unit": "%"}, {"measurement": "viability at […]", "setting": "Pfeiffer cells; IL6 3 ng/mL", "value": 95, "unit": "%"}, {"measurement": "viability at 0.2 µM", "setting": "Pfeiffer cells; IL6 0 ng/mL", "value": 63, "unit": "%"}, {"measurement": "viability at 0.2 µM", "setting": "Pfeiffer cells; IL6 3 ng/mL", "value": 91, "unit": "%"}, {"measurement": "viability at 0.421 µM", "setting": "Pfeiffer cells; IL6 0 ng/mL", "value": 54, "unit": "%"}, {"measurement": "viability at 0.421 µM", "setting": "Pfeiffer cells; IL6 3 ng/mL", "value": 83, "unit": "%"}]}
